Assay results published in publication PMC12073298, “Design, Synthesis, and Biological Evaluation of Naphthoquinone Salts as Anticancer Agents” (Molecules, 2025).

Experiments:
[1] = tested on: human endometrial cancer cells (HEC1A); details: hit compound, earlier work; cited from earlier work
[2] = tested on: human endometrial cancer cells (HEC1A); test: MTT cell viability assay, HEC1A cells; assay type: cell-based
Protocol: (§1) The cytotoxic effects of the synthesized salt compounds were assessed against human endometrial cancer cells (HEC1A) and normal endometrial stromal cells (MAD11) using the MTT cell viability assay. BH10 was used as the reference compound.
(§2) Reagents and equipment: phosphate-buffered saline (PBS) (Sigma Aldrich, St. Louis, MO, USA), 10× Trypsin-EDTA solution (Sigma Aldrich, 59418C), Dulbecco’s Modified Eagle’s Medium (Sigma Aldrich), foetal bovine serum (FBS), and 100× penicillin-streptomycin solution (Sigma Aldrich P4333). The MTT reagent was prepared by dissolving 5 mg/mL MTT powder in sterile PBS, followed by filtration, whereas the MTT solvent contained 4 mM HCl and 0.1% Nonidet P-40 in isopropanol. Dimethyl sulfoxide (DMSO) was also sourced from Sigma Aldrich. Absorbance measurements were acquired using Kaleido 1.0 software coupled with an EnSight™ HH3400 Multimode Plate Reader (PerkinElmer, Waltham, MA, USA). HEC-1-A endometrial cancer cells were obtained from ATCC, while MAD11 endometrial stromal cells were provided by Dr. Hui Li (University of Virginia). MAD11 cells, derived from non-cancerous donors, were immortalized via human telomerase reverse transcriptase (hTERT).
(§3) Method: The methods were adapted from Byrne et al. (2014). Cells were cultured in DMEM supplemented with 10% FBS and 1% Pen-Strep solution (100 U/mL penicillin and 0.1 mg/mL streptomycin). Upon reaching ~70% confluence, the cells were washed with sterile PBS and detached using a 1× trypsin-EDTA solution. The cells were then resuspended in culture media, counted, and seeded into sterile 96-well tissue culture plates (2500 cells per well for MAD11; 5000 cells per well for HEC-1-A). The cells were incubated at 37 °C with 5% CO2 for 24 h prior to drug treatment. Drugs were serially diluted in culture medium to final concentrations of 100, 50, 25, 12.5, 6.3, 3.1, 1.6, and 0.8 µM per well and applied in triplicate. For compounds 7a–f and 15, as their IC₅₀ values were below 0.8 µM, an additional set of three biological replicates was conducted using a lower concentration range (500, 250, 125, 63, 31, 16, 8, and 4 nM). To minimize variations due to DMSO (vehicle), both drug dilutions and control wells received the same final concentration of DMSO. After 48 h of incubation at 37 °C with 5% CO2, cell viability was assessed by adding 20 µL/well of MTT reagent for 3 h. Supernatants were aspirated, and formazan crystals were dissolved in MTT solvent before absorbance was measured at 590/620 nm using an EnSight™ HH3400 Multimode Plate Reader. Cell viability was expressed as a percentage of the vehicle (DMSO-treated) control, with results reported as mean ± SEM from three independent experiments. IC50 values were determined using GraphPad Prism 9.

[3] = tested on: normal endometrial stromal cells (MAD11); test: MTT cell viability assay, MAD11 cells; assay type: cell-based, human; details: Homo sapiens, MAD11, 48 h, MAD11 non-cancerous cells, n = 3 biological replicates, read-out: Mean IC50 (μM) MAD11 ± SD
Protocol: as §1, §2, §3

[4] = tested on: Indoleamine 2,3-dioxygenase 1 (IDO1); design: method as in ref 9-10 (a number printed in a supplementary file, which may have a reference list of its own: not looked up in the article's list); details: cited from earlier work
Hexokinase II = tested on: Hexokinase II; design: method as in ref 2-4 (a number printed in a supplementary file, which may have a reference list of its own: not looked up in the article's list); details: cited from earlier work
GLUT1 = tested on: GLUT1; design: method as in ref 5-6 (a number printed in a supplementary file, which may have a reference list of its own: not looked up in the article's list); details: cited from earlier work
[5] = tested on: Pyruvate Kinase M2 (PKM2); design: method as in ref 7-8 (a number printed in a supplementary file, which may have a reference list of its own: not looked up in the article's list); details: cited from earlier work
[6] = tested on: Survivin suppression (indirect); design: method as in ref 13 (a number printed in a supplementary file, which may have a reference list of its own: not looked up in the article's list); details: cited from earlier work
[7] = tested on: receptor-interacting protein kinase 2 (RIPK2); design: method as in ref 11-12 (a number printed in a supplementary file, which may have a reference list of its own: not looked up in the article's list); details: cited from earlier work
[8] = reported target as listed, test system not given, read-out: IC50 (Table S1)

For `O=C1C(Cl)=C(NCCN2CCOCC2)C(=O)c2ccccc21` [BH10, reference compound], the “selective toxicity (IC50 value in non-cancerous cells/IC50 value of cancer cells)” value [1] is listed as 2.38, the IC50 ([2]; Homo sapiens, HEC-1-A, 48 h, HEC1A cells, MTT, 48 h, n = 3 biological replicates, read-out: Mean IC50 (μM) HEC1A ± SD) is listed as 11.8 ± 5.19 µM and the “Selectivity Ratio” value ([2]; IC50 value from MAD11 cells divided by the IC50 value from HEC1A cells) is listed as 2.38. The IC50 [3] was 28.2 ± 12.2 µM.
In the case of `CC(C)=CCC1=C(O)C(=O)c2ccccc2C1=O` [Lapachol], the “Selectivity Notes (Table S1)” value ([4]; Table S1 comparison) is given as “Limited” and the IC50 [4, 8] is given as 25 µM.
For `O=C(O)c1nn(Cc2ccc(Cl)cc2Cl)c2ccccc12` [Lonidamine], the “Selectivity Notes (Table S1)” value (Hexokinase II; Table S1 comparison) is listed as “Low” and the IC50 (Hexokinase II; [8]) is listed as 170 µM.
In the case of `O=C(CCc1ccc(O)cc1)c1c(O)cc(O)cc1O` [Phloretin], the “Selectivity Notes (Table S1)” value (GLUT1; Table S1 comparison) is given as “Limited” and the IC50 (GLUT1; [8]) is given as roughly 2 µM.
In the case of `CC(C)=CC[C@@H](O)C1=CC(=O)c2c(O)ccc(O)c2C1=O` [Shikonin], the “Selectivity Notes (Table S1)” value ([5]; Table S1 comparison) is given as “Low” and the IC50 [5, 8] is given as 19.9 µM.
For `COCCn1c2c([n+](Cc3cnccn3)c1C)C(=O)c1ccccc1C2=O` [YM155], the “Selectivity Notes (Table S1)” value ([6]; Table S1 comparison) is listed as 18 and the IC50 [6, 8] is listed as 0.0137 µM.
In the case of `Cc1n(Cc2ccccc2)c2c([n+]1Cc1ccc(F)cc1)C(=O)c1ccccc1C2=O` [cRIPGBM], the “Selectivity Notes (Table S1)” value ([7]; Table S1 comparison) is given as “Variable, brain-specific” and the IC50 [7, 8] is given as 0.027 µM.
